Measured values as given in US9321750B2, “ROR modulators and their uses” (INNOV17 LLC, priority 2012, dated 2016).
Like-named read-outs stand apart in the source and are kept apart here.

What was measured:
IL-17A [1] = test: TH17 cytokine inhibition as measured by ELISA: IL-17A; format: cell-based; details: 120 h; human TH17 cells, 5 days differentiation, ELISA of supernatant
Description: (§1) Peripheral blood mononuclear cells (PBMCs) were sourced from freshly prepared leukocyte enriched plasma (buffy coat) from healthy volunteers from which PBMCs were isolated by density gradient centrifugation using Ficoll-Paque™ PLUS (GE Healthcare). Naïve CD4+ T cells were isolated using the Naïve CD4+ T cell Isolation Kit II (Miltenyi Biotec) as per manufacturer's instructions. CD4+ T cells were plated at 5×10^4 cells/well in 96 well plates pre-coated with immobilized human (h)-αCD3 antibody (eBioscience) then differentiated to TH17 cells using h-αCD28, h-αIFNγ, h-αIL4, h-IL6, h-IL23, h-IL1β, h-TGFβ1 (eBioscience) and maintained in a cell culture incubator at 37° C. with 5% CO2 in TexMACS Medium (Miltenyi Biotec) supplemented with 1% Penicillin/Streptomycin (Lonza) over 5 days.
(§2) Human CD4+ T cells were differentiated to TH17 cells as described in the presence or absence of various concentrations of compounds in a final concentration of 0.1% DMSO in TexMACS medium. Supernatants were collected and stored at −20° C. until they were to be assayed for IL-17A, IL-17F, IL-17AF, IL-21 and/or IL-22 levels as determined by Ready-Set-Go ELISA kits (eBioscience) as per manufacturer's instructions. Endpoint absorbance was read at 450 nm and 570 nm according to manufacturer's instructions (eBioscience) using a microplate reader (Perkin Elmer). The percentage of cytokine inhibition was calculated with reference to DMSO treated cells and the IC50s were determined by GraphPad Prism software and presented in the table below.

IL-17F = test: TH17 cytokine inhibition as measured by ELISA: IL-17F; format: cell-based; details: 120 h; human TH17 cells, 5 days differentiation, ELISA of supernatant
Description: as §1, §2

[2] = TH17 cell viability (Prestoblue); format: cell-based; parameters: concentration or dose not given beside the values; details: human; percentage of DMSO treated cells; read-out: % viability of compound treated TH17 cells
Description: as §1
Cells were assayed for viability in the presence or absence of compound using Prestoblue® Cell Viability Reagent (Life Technologies) as per manufacturer's instructions after 30 minutes incubation of TH17 cells with reagent. Absorbance was measured at 570 nm and 600 nm using a microplate reader (Perkin Elmer) and data were analyzed as per manufacturer's instructions. Cell viability was expressed as a percentage of DMSO treated cells.

TH17 cells = test: TH17 cellular proliferation (Prestoblue); format: cell-based; details: Homo sapiens, 120 h; 3 μM compound, after 5 day TH17 differentiation, relative to DMSO treated TH17 cells; read-out: % change in TH17 cell number
Description: as §1
Cellular proliferation was assessed in the presence or absence of 3 μM compound using Prestoblue® Cell Viability Reagent (Life Technologies) as per manufacturer's instructions using absorbance as the output measured by a microplate reader (Perkin Elmer) after 30 minutes of incubation of cells and reagent. A standard curve developed by plotting varying cell numbers versus absorbance was used to assess differences in cellular proliferation between compound treated or untreated cells after the 5 day TH17 differentiation period.

IL-17A [3] = test: Real-time qRT-PCR in TH17 cells: IL-17A gene expression; format: cell-based, human; parameters: key: A: No change in gene expression observed relative to DMSO treated Th17 cells; B: Decreased gene expression observed relative to DMSO treated Th17 cells; C: Increased gene expression observed relative to DMSO treated Th17 cells
Description: as §1
(§3) RNA was isolated from TH17 cells and cDNA was synthesized using the Verso cDNA kit (Thermo Scientific) as per manufacturer's instructions. IL-17A, IL-17F, IL-21, IL-22, G-CSF, IL-23R and FOXP3 gene expression were determined for compound treated and untreated TH17 cell samples using Solaris qPCR Gene expression assays (Thermo Scientific) with an iCycler iQ Real-Time PCR Detection System (Bio-Rad). Individual gene expression was normalized to a panel of six reference genes (ACTB, TBP, HPRT1, PGK1, TFRC and PPIA) (Thermo Scientific) and analyzed by REST 2009 (Qiagen) in accordance to MIQE guidelines (Bustin et al. (2009) Clin. Chem, 55:611-622). The effects of compounds on TH17 cytokine mRNA levels are presented as fold change in gene expression of compound treated TH17 cells relative to DMSO treated cells in the table below.

IL-22 = test: Real-time qRT-PCR in TH17 cells: IL-22 gene expression; format: cell-based, human; parameters: key: A: No change in gene expression observed relative to DMSO treated Th17 cells; B: Decreased gene expression observed relative to DMSO treated Th17 cells; C: Increased gene expression observed relative to DMSO treated Th17 cells
Description: as §1, §3

IL-23R = test: Real-time qRT-PCR in TH17 cells: IL-23R gene expression; format: cell-based, human; parameters: key: A: No change in gene expression observed relative to DMSO treated Th17 cells; B: Decreased gene expression observed relative to DMSO treated Th17 cells; C: Increased gene expression observed relative to DMSO treated Th17 cells
Description: as §1, §3

RORγ LBD [4] = target: T1, RORγ LBD (Homo sapiens (Human), UniProt P51449); test: TR-FRET co-activator D22 interaction with RORγ LBD; format: biochemical
From the text: (§4) The Time-Resolved Fluorescence Resonance Energy Transfer (TR-FRET) assay kit (Life Technologies) was used to measure compound efficacy to disrupt or enhance ligand-mediated interaction of the co-activator and co-repressor peptides with the purified GST-tagged (i) RORγ LBD or (ii) […]. The RORγ LBD and RORα LBD each have a basal level of interaction with the co-activator D22 or co-repressor NCoR1-D2 in the absence of ligand, thus it is possible to identify compounds that inhibit or induce RORγ and/or RORα co-activator/co-repressor interactions, thus determining RORα, RORγ, or RORα/RORγ compound selectivity. The assay was performed as per manufacturer's instructions and TR-FRET was assessed 2 and 20 hours post-assay initiation. Compounds were identified to (i) have no impact on either co-activator displacement or […] from the assessed LBD (ii) promote co-activator displacement from the assessed LBD (iii) promote co-repressor recruitment to the assessed LBD or (iv) concurrently promote co-activator displacement from the assessed LBD and co-repressor recruitment to the assessed LBD.

RORγ LBD [5] = target: T1, RORγ LBD; test: TR-FRET co-repressor NCoR1-D2 interaction with RORγ LBD; format: biochemical
From the text: as §4

RORα LBD = RORα LBD (Homo sapiens (Human), UniProt P35398); test: TR-FRET co-activator D22 interaction with RORα LBD; format: biochemical
From the text: as §4

[6] = 2 hr, read-out: RORγ EC50 D22 co-activator displacement 2 hr
[7] = 20 hr, read-out: RORγ EC50 D22 co-activator displacement 20 hr
[8] = 2 hr, read-out: RORγ EC50 NCoR1-D2 co-repressor recruitment 2 hr
[9] = 20 hr, read-out: RORγ EC50 NCoR1-D2 co-repressor recruitment 20 hr
[10] = 2 hr, read-out: RORα EC50 D22 co-activator displacement 2 hr
[11] = 20 hr, read-out: RORα EC50 D22 co-activator displacement 20 hr

T1 sequence (P51449 269-508): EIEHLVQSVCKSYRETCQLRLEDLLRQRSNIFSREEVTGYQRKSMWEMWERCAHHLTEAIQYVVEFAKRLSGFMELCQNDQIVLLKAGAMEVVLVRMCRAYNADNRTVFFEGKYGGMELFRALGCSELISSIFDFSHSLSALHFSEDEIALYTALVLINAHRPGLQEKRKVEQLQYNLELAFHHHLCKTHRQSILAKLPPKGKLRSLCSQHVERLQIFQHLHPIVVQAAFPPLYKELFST
RORα LBD, sequence (P35398 272-510): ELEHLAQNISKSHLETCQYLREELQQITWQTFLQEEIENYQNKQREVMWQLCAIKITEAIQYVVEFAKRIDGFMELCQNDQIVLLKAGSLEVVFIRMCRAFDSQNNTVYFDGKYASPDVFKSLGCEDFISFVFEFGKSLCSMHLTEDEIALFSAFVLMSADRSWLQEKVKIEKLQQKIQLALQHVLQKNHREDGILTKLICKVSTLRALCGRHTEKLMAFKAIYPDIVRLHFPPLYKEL

SMILES | IC50 (IL-17A [1]) [µM] | IC50 (IL-17F) [µM] | viability [2] [%] | inhibition at 3 µM (TH17 cells) [%] | Fold change in mRNA level of compound treated TH17 cells relative to DMSO treated cells IL-17A (IL-17A [3]) | Fold change in mRNA level of compound treated TH17 cells relative to DMSO treated cells IL-22 (IL-22) | Fold change in mRNA level of compound treated TH17 cells relative to DMSO treated cells IL-23R (IL-23R) | EC50 (RORγ LBD [4]; [6]) [µM] | EC50 (RORγ LBD [4]; [7]) [µM] | EC50 (RORγ LBD [5]; [8]) [µM] | EC50 (RORγ LBD [5]; [9]) [µM] | EC50 (RORα LBD; [10]) [µM] | EC50 (RORα LBD; [11]) [µM]
CC(=O)Nc1ccc2c(c1)CCCN2Cc1ccc(C(O)(C(F)(F)F)C(F)(F)F)cc1 [Example 2, N-(1-(4-(1,1,1,3,3,3-hexafluoro-2-hydroxypropan-2-yl)benzyl)-1,2,3,4-tetrahydroquinolin-6-yl)acetamide] | < 10 | < 10 | > 80 | ≤ 50 | A | A | A | < 30 | < 30 | > 30 | > 30 | < 30 | > 30
CC(=O)Nc1ccc2c(c1)CCN2Cc1ccc(C(O)(C(F)(F)F)C(F)(F)F)cc1 [Example 4, N-(1-(4-(1,1,1,3,3,3-hexafluoro-2-hydroxypropan-2-yl)benzyl)indolin-5-yl)acetamide] | < 10 | < 10 | > 80 | > 50 | B | C | B | < 30 | < 30 | < 30 | < 30 | > 30 | > 30
CS(=O)(=O)Nc1ccc2c(c1)CCCN2Cc1ccc(C(O)(C(F)(F)F)C(F)(F)F)cc1 [Example 5, N-(1-(4-(1,1,1,3,3,3-hexafluoro-2-hydroxypropan-2-yl)benzyl)-1,2,3,4-tetrahydroquinolin-6-yl)methanesulfonamide] | < 10 | < 10 | > 80 | ≤ 50 | B | A | B | > 30 | < 30 | < 30 | < 30 | < 30 | < 30
